Tests used:
Homo sapiens [1] = species: Homo sapiens; experiment: Selectivity ratio of Ki for human recombinant ABL T315I mutant to Ki for human recombinant ABL using ATP as substrate
Homo sapiens [2] = species: Homo sapiens; experiment: Selectivity ratio of Ki for human recombinant ABL T315I mutant to Ki for human recombinant ABL using abtide peptide as substrate

Ratio Ki (Homo sapiens [1]) | Ratio Ki (Homo sapiens [2]) | SMILES
20 | 20 | Cc1ccc(NC(=O)c2ccc(CN3CCN(C)CC3)cc2)cc1Nc1nccc(-c2cccnc2)n1
40 | 40 | NC(=O)c1cccc(-c2cc(Nc3ccc(OC(F)(F)F)cc3)ncn2)c1
